The compounds below were run against T1, TrkA (Homo sapiens, UniProt P04629) (assay: TrkA substrate phosphorylation assay (tyrosine kinase activity, synthetic peptide substrate, 33P-ATP, p81 filter plates)). Settings: GST-fusion of the TrkA intracellular domain, 30 uM ATP, 50 uM Src peptide, RT for 120′.
T1 construct: The enzyme is a GST-fusion of the intracellular domain expressed in SF9 cells; GST; purchased Regeneron; host or cells: SF9 cells
Type: biochemical
Experimental: Substrate phosphorylation assays were carried out as follows:
The enzyme is a GST-fusion of the intracellular domain expressed in SF9 cells. The enzyme is expressed and purified by Regeneron. The enzyme is preincubated with cold ATP and Mg to allow autophosphorylation prior to running the screen. […] The assay is performed in 96 well microtitre plates, and reaction products are detected following filtration through millipore p81 phosphocellulose plates.

T1 sequence (P04629 440-796 limits assumed, species assumed): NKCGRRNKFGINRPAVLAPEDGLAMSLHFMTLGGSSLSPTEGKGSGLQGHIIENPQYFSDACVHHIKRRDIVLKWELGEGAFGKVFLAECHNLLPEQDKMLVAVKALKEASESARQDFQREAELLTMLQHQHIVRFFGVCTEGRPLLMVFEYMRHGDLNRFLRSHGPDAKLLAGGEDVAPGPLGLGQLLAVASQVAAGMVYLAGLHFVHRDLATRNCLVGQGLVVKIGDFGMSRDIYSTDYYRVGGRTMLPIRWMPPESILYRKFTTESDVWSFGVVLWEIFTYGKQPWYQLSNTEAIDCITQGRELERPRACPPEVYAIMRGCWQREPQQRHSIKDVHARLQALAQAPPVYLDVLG

COc1ccccc1-c1cc(C=C2C(=O)Nc3ncc(Br)cc32)cc(Br)c1O [Example 1, 3-(3-Bromo-4-hydroxy-5-(2′methoxyphenyl)-benzylidene)-5-bromo-1,3-dihydro-pyrrolo[2,3-b]pyridin-2-one] and Cn1cc(C=C2C(=O)Nc3ncccc32)c2ccccc21 [Example 4] cannot be ordered by IC50: < 10 nM for the first, < 10 nM for the second.

First: O=C1Nc2ncccc2C1=Cc1c[nH]c2ccccc12 [Example 5]
Second: O=C1Nc2cccnc2C1=Cc1c[nH]c2ccccc12 [Example 3]
The IC50 of the first is lower: < 10 nM for the first, 10 to 250 nM for the second.
